The record followed here is patent publication EP0267319A1, “Anti-spasmodic agents having a ring in the main chain” (United Pharmaceuticals, Inc., priority 1986, dated 1988).

Where a name gives a salt, the structure may show the parent alone.

The test system of this assay is rabbit urinary bladder strip. Nature of the assay: relaxant effect on bethanechol-contracted rabbit urinary bladder strips (organ bath). The conditions noted are these: for Decrease in force of contraction of rabbit bladder strip / Increase in length of rabbit bladder strip: strips pre-contracted with bethanechol 150 µM; for Increase in length of rabbit bladder strip: cumulative dosing, read 5 minutes after addition; for % background relaxation: term not explained. Format: cell-based. How it is done: The pharmological actions of one anti-spasmodic compound was studied in a rabbit urinary bladder strip preparation. In general, longitudinal strips were prepared from the base of freshly isolated rabbit bladders and were then suspended under near-physiological conditions in tissue baths. The strips were attached to force transducers and both contractile and relaxant activity was measured. To measure the relaxant effects on the anti-spasmodic compounds on previously-contracted bladder strips, the strips were initially exposed to the muscarinic receptor agonist bethanechol and allowed to reach a steady level of contractile activity for 20 minutes. At this point cumulative dose-responses to the compound was recorded. The rabbit abdomens were opened through a vertical midline incision. The bladder and urethra were dissected free of all surrounding tissues, removed and placed in aerated (95% O₂:5% CO₂) Kreb's-bicarbonate buffer (pH:7.4) of the following composition ([…]):KCl 4.6, CaCl₂·2H₂O 2.5, KH₂PO₄ 1.2, MgSO₄·7H₂O 1.2, NaCl 118.2, NaHCO₃ 24.8, and glucose 10.0. Longitudinal muscle strips were prepared from the bladder base (approximately 6 mm x 4 mm) and suspended in an organ bath containing Kreb's buffer (37°C) which was continuously aerated with O₂:CO₂ (95%:5%). Tissues were allowed to equilibrate to a tension of 2 gm for sixty minutes during which time buffer was replaced at 20 minute intervals. The contractile and relaxant responses of the muscle strips were measured isometrically with a Statham UC3 force-displacement transducer and recorded on an Electronics for Medicine DR8 oscillographic recorder. Bethanechol was employed as the representative cholinergic agonist and, following equilibration, was added to the baths for a final concentration of 150 µM. The tissues were allowed 20 minutes to achieve a maintained level of contraction in response to bethanechol and, at this point, cumulative dose-response measurements for one anti-spasmodic compound were started at concentrations ranging from 10⁻⁸ M to 10⁻⁴M. Solutions were added in volumes up to 100 µl and were prepared fresh each day by dissolving them in distilled:deionzed water. Responses were measured 5 minutes following any particular cumulative addition and were expressed as a percentage of maximal relaxation (e.g. maximal relaxation is the baseline or pre-bethanechol level of muscle tone).
Dose responses, measured from the standard bethanechol-contracted rabbit bladder strips, at various concentrations of 4-t-butyl-benzoyl-thio-S-(2-diethylaminoethyl)-ester·HCl [drawing 12] are presented in Table I: […]

As to `CCN(CC)CCSC(=O)c1ccc(C(C)(C)C)cc1` [4-t-butyl-benzoyl-thio-S-(2-diethylaminoethyl)-ester·HCl], the “Decrease in force of contraction of rabbit bladder strip” value by setting is: (10^-4 moles/liter) 0.67 gm; (10^-5 moles/liter) 0.27 gm; (10^-6 moles/liter) 0.08 gm; (10^-7 moles/liter) 0.04 gm; (10^-8 moles/liter) 0.02 gm. The “Increase in length of rabbit bladder strip” value runs as follows: (10^-4 moles/liter) 3.2 cm; (10^-5 moles/liter) 1.3 cm; (10^-6 moles/liter) 0.4 cm; (10^-7 moles/liter) 0.2 cm; (10^-8 moles/liter) 0.1 cm. For the same molecule, the “% background relaxation” value reads like this: (10^-4 moles/liter) 31.8%; (10^-5 moles/liter) 9.5%; (10^-6 moles/liter) 0.0%; (10^-7 moles/liter) 0.0%; (10^-8 moles/liter) 0.0%. The inhibition at 100 µM (Oryctolagus cuniculus, 5 min, 10^-4 moles/liter, maximal relaxation = pre-bethanechol level of muscle tone, read-out: % of maximum relaxation) was 40.5%. For the same molecule, where the note is “Oryctolagus cuniculus, 5 min, 10^-5 moles/liter, maximal relaxation = pre-bethanechol level of muscle tone, read-out: % of maximum relaxation”, the inhibition at 10 µM stood at 16.5%. The inhibition at 1 µM (Oryctolagus cuniculus, 5 min, 10^-6 moles/liter, maximal relaxation = pre-bethanechol level of muscle tone, read-out: % of maximum relaxation) turned out to be 5.2%. In addition, for the setting “Oryctolagus cuniculus, 5 min, 10^-7 moles/liter, maximal relaxation = pre-bethanechol level of muscle tone, read-out: % of maximum relaxation”, the inhibition at 0.1 µM stood at 2.6%. In addition, the inhibition at 0.01 µM (Oryctolagus cuniculus, 5 min, 10^-8 moles/liter, maximal relaxation = pre-bethanechol level of muscle tone, read-out: % of maximum relaxation) was 1.3%.
